Legend:
Recombinant human HDAC1 = target: T1, Recombinant human HDAC1 (Homo sapiens, UniProt Q13547); assay: HDAC-Glo I/II assay, HDAC1; format: biochemical; settings: for IC50: Class I HDAC, compounds reduced by TCEP prior to assay, read-out: IC50 of HDAC1; for Class I selectivity Ratio HDAC 1/HDAC8 / Class I vs. Class IIa Ratio HDAC 1/HDAC6: ratio of IC50 values
T1 construct: purchased BPS Bioscience Inc
Protocol: (§1) The purified compounds of all fragments and natural product derivatives were evaluated for inhibitory effects on three different classes of HDAC proteins (class I, IIa, and IIb). […] All activity was determined by using a fluorescence-based in vitro assay. Class I HDAC proteins that were evaluated were HDAC1, HDAC2, HDAC3, HDAC8, HDAC4, and HDAC6. Class IIa HDAC protein were HDAC4 and the Class IIb HDAC protein were HDAC6.
(§2) HDAC-Glo™ I/II Assay and Screening System (Promega) was used to determine the HDAC inhibitory activity. Recombinant human HDAC1, HDAC2, HDAC3, HDAC4, HDAC6 and HDAC8 were purchased from BPS Bioscience Inc. The inhibitory activities of the test compounds against recombinant HDAC were performed according to reagent suppliers' protocols.
(§3) All test compounds were firstly dissolved in DMSO to make 10 mM stock solution. A certain amount of stock solution was diluted to 1 mM by DMSO and then reduced by tris(2-carboxyethyl)phosphine hydrochloride (TCEP) in a molar ration of 1:1.5 for 20 min at ambient temperature prior to being assayed. After reduction, a series of fivefold dilutions of each reduced compound were prepared with HDAC-Glo buffer and 25 μL of each dilution was added into a well on a 96-well plate. HDAC enzymes were diluted to the desired concentrations with HDAC-Glo buffer and 25 μL of each diluted enzyme was dispensed into a well to mix with 25 μL of testing compound at room temperature for 30-60 seconds. After the reaction mixture had been incubated at room temperature for 1 hour, 50 μL of HDAC-Glo reagent was added to each reaction well and mixed up for 30-60 seconds. Finally, the plate was incubated at room temperature for an additional 30 minutes before the luminescence was measured on a Synergy HT plate reader (Bio-Tek). The luminescence intensity data were analyzed using GraphPad Prism 5 (GraphPad Software). In the absence of any test compound, the luminescence intensity (I100) in each data set was defined as 100% activity. In the absence of both of HDAC enzymes and test compound, the luminescence intensity (I0) in each data set was defined as 0% activity. The relative activity (%) in the presence of each compound was calculated according to the following equation: % activity=(I−I0)/(I100−I0), where I=the luminescence intensity if a compound is present in the reaction. Experiments were performed in triplicate and the calculated mean values were used for plotting.

Recombinant human HDAC2 = target: T2, Recombinant human HDAC2 (Homo sapiens, UniProt Q92769); assay: HDAC-Glo I/II assay, HDAC2; format: biochemical; settings: Class I HDAC; compounds reduced by TCEP prior to assay
T2 construct: purchased BPS Bioscience Inc
Protocol: as §1, §2, §3

Recombinant human HDAC3 = target: T3, Recombinant human HDAC3 (Homo sapiens, UniProt O15379); assay: HDAC-Glo I/II assay, HDAC3; format: biochemical; settings: Class I HDAC; compounds reduced by TCEP prior to assay
T3 construct: purchased BPS Bioscience Inc
Protocol: as §1, §2, §3

Recombinant human HDAC8 = target: T4, Recombinant human HDAC8 (Homo sapiens, UniProt Q9BY41); assay: HDAC-Glo I/II assay, HDAC8; format: biochemical; settings: Class I HDAC; compounds reduced by TCEP prior to assay
T4 construct: purchased BPS Bioscience Inc
T4 sequence (Q9BY41 1-377): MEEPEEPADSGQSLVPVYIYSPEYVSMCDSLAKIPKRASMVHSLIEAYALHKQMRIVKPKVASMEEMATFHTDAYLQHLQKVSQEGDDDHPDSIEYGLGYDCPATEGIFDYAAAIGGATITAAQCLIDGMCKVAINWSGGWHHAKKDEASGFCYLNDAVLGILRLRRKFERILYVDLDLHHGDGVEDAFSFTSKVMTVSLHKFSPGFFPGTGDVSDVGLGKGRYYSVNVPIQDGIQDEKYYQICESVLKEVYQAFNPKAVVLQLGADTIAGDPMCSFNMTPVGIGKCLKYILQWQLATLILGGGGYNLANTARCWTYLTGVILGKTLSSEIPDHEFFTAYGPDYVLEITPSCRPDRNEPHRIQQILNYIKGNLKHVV
Protocol: as §1, §2, §3

Recombinant human HDAC4 = target: T5, Recombinant human HDAC4 (Homo sapiens, UniProt P56524); assay: HDAC-Glo I/II assay, HDAC4; format: biochemical; settings: Class IIa HDAC; compounds reduced by TCEP prior to assay; read-out: IC50 of HDAC4
T5 construct: purchased BPS Bioscience Inc
Protocol: as §1, §2, §3

HCT-116 (colon cancer) = assay: MTT antiproliferative assay, HCT-116; format: cell-based; settings: Homo sapiens, HCT-116; MTT, 48 h; read-out: Antiproliferative Activity GI50, Colon HCT-116
Protocol: (§4) Briefly, the tumor cells (1×10^4 cells/well) were seeded in 96-well microtiter plates and incubated for 24 h at 37° C. Following incubation, the media was replaced with fresh media containing the above compounds at concentrations ranging from 1 μM to 1 pM diluted in DMSO and incubated for an additional 48 h. Drugs were run in duplicate or triplicate and control cells received fresh media with DMSO concentration equivalent to the treatment groups. […] After aspirating the culture medium, 200 μL of DMSO was added to dissolve the precipitate and the resulting solution was measured for absorbance at 570 nm with a reference wavelength of 690 nm using a microplate reader (Infinite M200 Pro TECAN).

HeLa (cervical cancer) = assay: MTT antiproliferative assay, HeLa; format: cell-based; settings: Homo sapiens, MTT, 48 h, read-out: Antiproliferative Activity GI50, Cervical HeLa
Protocol: as §4

RFX393 (renal) = assay: MTT antiproliferative assay, RFX393; format: cell-based; settings: MTT, 48 h; read-out: Antiproliferative Activity GI50, Renal RFX393
Protocol: as §4

SKOV-3 (ovarian) = assay: MTT antiproliferative assay, SKOV-3; format: cell-based; settings: Homo sapiens, SK-OV-3; MTT, 48 h; read-out: Antiproliferative Activity GI50, Ovarian SKOV-3
Protocol: as §4

DU-145 (prostate cancer) = assay: MTT antiproliferative assay, DU-145; format: cell-based; settings: Homo sapiens, DU-145; MTT, 48 h; read-out: Antiproliferative Activity GI50, Prostate DU-145
Protocol: as §4

[1] = system: MDA-MB-231 (breast cancer); assay: MTT antiproliferative assay, MDA-MB-231; format: cell-based; settings: Homo sapiens, MDA-MB-231; MTT, 48 h; read-out: Antiproliferative Activity GI50, Breast MDA-MB-231
Protocol: as §4

COLO-205 (colon cancer) = assay: MTT antiproliferative assay, COLO-205; format: cell-based; settings: Homo sapiens, COLO 205; MTT, 48 h; read-out: Antiproliferative Activity GI50, Colon COLO-205
Protocol: as §4

in vivo = settings: BALB/c, mouse, in vivo, ip
Description: BALB/c mice were purchased from The Jackson Laboratory (Bar Harbor, Me.) and used between 7 and 10 weeks of age. Mice were housed in a conventional animal vivarium and were given free access to food and water. All studies and procedures were approved by the Animal Care and Use Committee of the University of Wisconsin, Milwaukee.
Each animal was initially weighed using a digital scale and then intraperitoneally (IP) injected with the compounds (listed in Table 2). A single mouse was given a single IP dose of 200 mg/kg, body weight, a second mouse received a dose of 100 mg/kg and a third mouse received a single dose of 50 mg/kg. The mice were observed and weighed every other day for a period of 2 weeks. They were euthanized if they lost more than 20% of their body weight or if there were other signs of significant toxicity. […] This process was repeated until a tolerated dose was found, and the MTD value was determined.
To determine the MTD in vivo, the compounds listed above were injected intraperitoneally into BALB/c mice and morbidity and mortality were monitored over two weeks.

[2] = 10 mg/mL cpd in 20% DMSO/saline
[3] = system: colon (HCT-116), cervical (HeLa), and renal (RFX393) tumor cell lines; assay: MTT antiproliferative assay, all three tumor cell lines; format: cell-based; settings: HCT-116, HeLa, RFX393; summary of Table 3; read-out: GI50 values against all three tumor cell lines
Protocol: as §4

T2 sequence (Q92769 whole entry): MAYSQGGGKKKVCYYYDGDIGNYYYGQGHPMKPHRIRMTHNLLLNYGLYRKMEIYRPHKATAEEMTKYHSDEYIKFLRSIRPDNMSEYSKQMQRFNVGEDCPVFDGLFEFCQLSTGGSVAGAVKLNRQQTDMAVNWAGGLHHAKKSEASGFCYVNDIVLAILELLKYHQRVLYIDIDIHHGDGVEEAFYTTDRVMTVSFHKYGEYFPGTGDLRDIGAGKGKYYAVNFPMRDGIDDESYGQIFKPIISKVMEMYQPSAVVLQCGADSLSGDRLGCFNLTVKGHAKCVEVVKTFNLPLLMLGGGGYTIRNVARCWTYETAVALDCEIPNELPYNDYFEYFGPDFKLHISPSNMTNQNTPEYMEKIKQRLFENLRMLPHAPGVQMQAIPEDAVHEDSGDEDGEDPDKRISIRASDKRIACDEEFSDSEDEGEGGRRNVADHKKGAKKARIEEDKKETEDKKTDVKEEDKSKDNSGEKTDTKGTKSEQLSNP
T1 sequence (Q13547 whole entry): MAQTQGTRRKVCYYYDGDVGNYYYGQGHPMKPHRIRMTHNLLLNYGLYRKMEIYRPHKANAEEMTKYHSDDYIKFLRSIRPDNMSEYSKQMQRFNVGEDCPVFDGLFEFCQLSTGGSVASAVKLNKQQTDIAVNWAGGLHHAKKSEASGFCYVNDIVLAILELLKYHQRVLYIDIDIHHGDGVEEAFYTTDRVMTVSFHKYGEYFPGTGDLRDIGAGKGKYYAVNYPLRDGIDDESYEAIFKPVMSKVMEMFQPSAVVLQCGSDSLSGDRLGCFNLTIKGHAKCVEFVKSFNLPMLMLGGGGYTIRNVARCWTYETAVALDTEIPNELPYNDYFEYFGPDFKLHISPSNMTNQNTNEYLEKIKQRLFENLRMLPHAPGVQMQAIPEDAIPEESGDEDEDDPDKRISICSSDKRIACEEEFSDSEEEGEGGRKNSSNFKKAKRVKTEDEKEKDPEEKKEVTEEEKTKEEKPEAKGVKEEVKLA
T3 sequence (O15379 whole entry): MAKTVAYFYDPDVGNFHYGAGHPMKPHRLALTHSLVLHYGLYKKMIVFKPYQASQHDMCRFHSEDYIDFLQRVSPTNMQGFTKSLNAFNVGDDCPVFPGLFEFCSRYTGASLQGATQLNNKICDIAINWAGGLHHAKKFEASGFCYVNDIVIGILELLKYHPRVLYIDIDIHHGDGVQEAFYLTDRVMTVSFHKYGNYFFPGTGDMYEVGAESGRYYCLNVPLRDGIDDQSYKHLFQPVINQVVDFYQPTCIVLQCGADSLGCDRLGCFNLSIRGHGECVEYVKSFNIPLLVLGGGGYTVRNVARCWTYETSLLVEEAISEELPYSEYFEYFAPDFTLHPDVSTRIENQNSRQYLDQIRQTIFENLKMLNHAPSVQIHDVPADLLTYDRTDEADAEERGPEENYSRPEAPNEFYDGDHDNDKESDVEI
T3 sequence (Q9Y618 395-489 partner limits assumed): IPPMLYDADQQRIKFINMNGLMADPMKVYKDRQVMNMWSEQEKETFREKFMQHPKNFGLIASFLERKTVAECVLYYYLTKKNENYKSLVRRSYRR
T5 sequence (P56524 whole entry): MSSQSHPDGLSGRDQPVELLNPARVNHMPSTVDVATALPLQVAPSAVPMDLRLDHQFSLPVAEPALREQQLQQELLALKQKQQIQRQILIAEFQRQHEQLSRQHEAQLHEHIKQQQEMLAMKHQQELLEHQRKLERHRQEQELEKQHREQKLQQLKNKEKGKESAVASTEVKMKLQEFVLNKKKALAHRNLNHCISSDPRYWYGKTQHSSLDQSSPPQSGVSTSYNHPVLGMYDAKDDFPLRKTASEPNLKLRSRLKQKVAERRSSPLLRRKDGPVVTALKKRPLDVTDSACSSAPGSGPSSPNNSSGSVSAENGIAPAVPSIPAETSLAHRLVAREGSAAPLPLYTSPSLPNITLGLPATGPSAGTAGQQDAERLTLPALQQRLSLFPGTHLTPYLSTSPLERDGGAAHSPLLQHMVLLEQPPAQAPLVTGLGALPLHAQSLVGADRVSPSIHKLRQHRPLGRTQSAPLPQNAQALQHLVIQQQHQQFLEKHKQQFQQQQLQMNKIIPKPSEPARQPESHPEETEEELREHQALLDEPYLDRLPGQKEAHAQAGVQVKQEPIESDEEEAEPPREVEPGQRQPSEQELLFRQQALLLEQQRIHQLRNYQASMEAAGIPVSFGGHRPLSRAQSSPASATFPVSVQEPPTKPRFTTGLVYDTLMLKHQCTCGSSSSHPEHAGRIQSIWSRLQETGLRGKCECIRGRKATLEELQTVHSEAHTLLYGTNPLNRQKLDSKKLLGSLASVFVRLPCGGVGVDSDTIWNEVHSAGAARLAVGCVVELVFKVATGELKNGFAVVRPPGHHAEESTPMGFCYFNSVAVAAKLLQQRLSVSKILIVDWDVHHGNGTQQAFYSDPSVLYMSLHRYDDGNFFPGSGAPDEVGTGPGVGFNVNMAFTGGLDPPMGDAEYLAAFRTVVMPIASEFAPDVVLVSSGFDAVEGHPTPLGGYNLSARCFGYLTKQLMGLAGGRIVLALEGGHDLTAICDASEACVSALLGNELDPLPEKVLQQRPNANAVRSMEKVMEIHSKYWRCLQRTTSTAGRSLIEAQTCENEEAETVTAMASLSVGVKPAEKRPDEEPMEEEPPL

SMILES	IC50 (Recombinant human HDAC1)	Class I selectivity Ratio HDAC 1/HDAC8 (Recombinant human HDAC1)	Class I vs. Class IIa Ratio HDAC 1/HDAC6 (Recombinant human HDAC1)	IC50 (Recombinant human HDAC2)	IC50 (Recombinant human HDAC3)	IC50 (Recombinant human HDAC8)	IC50 (Recombinant human HDAC4)	GI50 (HCT-116 (colon cancer))	GI50 (HeLa (cervical cancer))	GI50 (RFX393 (renal))	GI50 (SKOV-3 (ovarian))	GI50 (DU-145 (prostate cancer))	GI50 [1]	GI50 (COLO-205 (colon cancer))	MTD at 2 weeks (in vivo)	Solubility [2]	GI50 [3]
CCC(C)[C@H]1NC(=O)[C@H]2CSSCC/C=C/[C@H](CC(=O)N[C@H](CCSC)C(=O)N2)OC(=O)C[C@@H]1OC(=O)c1ccccc1 (stereo partly drawn) [TDC1]	0.0109 µM	0.00252	0.0020	0.051 µM	0.64 µM	3.67 µM	~500 µM	0.0247 µM	0.225 µM	0.0351 µM	0.03 µM	0.08 µM	0.04 µM	0.07 µM	50 mg/kg	Not soluble	–
CCC(C)[C@H]1NC(=O)[C@H]2CSSCC/C=C/[C@H](CC(=O)N[C@H](CCSC)C(=O)N2)OC(=O)C[C@@H]1OCCC=O (stereo partly drawn) [TDC2]	0.0096 µM	0.00096	0.0064	0.037 µM	0.701 µM	4.33 µM	135 µM	0.056 µM	0.141 µM	0.051 µM	–	–	–	–	12.5 mg/kg	Not soluble	–
CCC(C)[C@H]1NC(=O)[C@H]2CSSCC/C=C/[C@H](CC(=O)N[C@H](CCSC)C(=O)N2)OC(=O)C[C@@H]1OC(C)=O (stereo partly drawn) [TDC3]	0.0027 µM	0.00006	0.0020	0.0442 µM	0.245 µM	10 µM	40.5 µM	0.12 µM	0.332 µM	0.107 µM	–	–	–	–	> 200 mg/kg	Not soluble	–
CCC(C)C(NC(=O)CC(O)/C=C/CCS)C(=O)O (stereo not drawn) [TDF4]	0.0039 µM	–	–	–	0.714 µM	43.9 µM	> 1000 µM	3.7 µM	4.8 µM	4.1 µM	–	–	–	–	> 200 mg/kg	Mostly soluble	≤ 5 µM
CC(C)[C@H](NC(=O)CC(O)/C=C/CCS)C(=O)O (stereo partly drawn) [TDF6]	0.0035 µM	0.00003	–	0.111 µM	0.0416 µM	16.6 µM	> 1000 µM	1.3 µM	3.6 µM	3.1 µM	–	–	–	–	> 200 mg/kg	Soluble	≤ 4 µM
CCC(C)[C@H]1NC(=O)[C@H]2CSSCC/C=C/[C@H](CC(=O)N[C@H](CCSC)C(=O)N2)OC(=O)C[C@@H]1O (stereo partly drawn) [TDP-A, Thailandepsin A, reference compound]	0.0024 µM	0.00065	0.0088	0.0081 µM	0.0077 µM	8.44 µM	20.5 µM	0.00093 µM	0.00036 µM	0.00047 µM	0.002 µM	0.001 µM	0.003 µM	0.0035 µM	6.25 mg/kg	Not soluble	–
CCCC[C@H]1NC(=O)C[C@H]2/C=C/CCSSC[C@@H](NC1=O)C(=O)N[C@H](C(C)CC)[C@@H](O)CC(=O)O2 (stereo partly drawn) [TDP-B, Thailandepsin B, reference compound]	0.0022 µM	0.00026	0.0034	0.0256 µM	0.0482 µM	10.9 µM	27.9 µM	0.002 µM	0.0021 µM	0.0022 µM	–	–	–	–	6.25 mg/kg	Not soluble	–
